Data reported in ChEMBL document CHEMBL3885881, “DrugMatrix”.

Species: Rattus norvegicus
Test: DrugMatrix - Regimen: Daily Repeat
Type: toxicity, organism-based, Sprague-Dawley
Design: regimen Daily Repeat, gender Male, age 6-8 weeks
Conditions: in vivo, ip, 10 mg/kg, route intraperitoneal, dose level High, vehicle 100 % SALINE; for ALANINE AMINOTRANSFERASE / ALBUMIN / ALKALINE PHOSPHATASE / ASPARTATE AMINOTRANSFERASE / BLOOD UREA NITROGEN / CHLORIDE / CHOLESTEROL / CREATINE PHOSPHOKINASE / CREATININE / GLUCOSE / LACTATE DEHYDROGENASE / LIPASE / PHOSPHORUS / SODIUM / TOTAL BILIRUBIN / TOTAL PROTEIN / URIC ACID / POTASSIUM: tissue Plasma
[1] = 120 h, tissue Blood, time 5 day

COBALTOUS CHLORIDE
ABSOLUTE EOSINOPHIL [1]: 74 cells/µL | ABSOLUTE LYMPHOCYTE [1]: 8680 cells/µL | ABSOLUTE MONOCYTE [1]: 210 cells/µL | ABSOLUTE SEGMENTED NEUTROPHIL [1]: 1660 cells/µL | BASOPHIL [1]: 0.44% | EOSINOPHIL [1]: 0.68% | ERYTHROCYTE COUNT [1]: 7.83 x10E6/uL | HEMATOCRIT [1]: 48.96% | HEMOGLOBIN [1]: 15.82 G/DL | LEUKOCYTE COUNT [1]: 10.72 x10E3/uL | LYMPHOCYTE [1]: 81.38% | MEAN CORPUSCULAR HEMOGLOBIN [1]: 20.22 pg | MEAN CORPUSCULAR HEMOGLOBIN CONCENTRATION [1]: 32.34 G/DL | MEAN CORPUSCULAR VOLUME [1]: 62.58 fL | MONOCYTE [1]: 1.94% | NEUTROPHIL [1]: 15.1% | PLATELET COUNT [1]: 1648.2 x10E3/uL | ALANINE AMINOTRANSFERASE (120 h, time 5 day): 27.2 u/L | ALBUMIN (120 h, time 5 day): 3.7 G/DL | ALKALINE PHOSPHATASE (120 h, time 5 day): 212.6 u/L | ASPARTATE AMINOTRANSFERASE (120 h, time 5 day): 86.6 u/L | BLOOD UREA NITROGEN (120 h, time 5 day): 17.2 mg/dL | CHLORIDE (120 h, time 5 day): 110.4 MEQ/L | CHOLESTEROL (120 h, time 5 day): 49.8 mg/dL | CREATINE PHOSPHOKINASE (120 h, time 5 day): 277.6 u/L | CREATININE (120 h, time 5 day): 0.56 mg/dL | GLUCOSE (120 h, time 5 day): 125.8 mg/dL | LACTATE DEHYDROGENASE (120 h, time 5 day): 60.2 u/L | LIPASE (120 h, time 5 day): 31.2 u/L | PHOSPHORUS (120 h, time 5 day): 11.88 mg/dL | SODIUM (120 h, time 5 day): 148.6 MEQ/L | TOTAL BILIRUBIN (120 h, time 5 day): 0.26 mg/dL | TOTAL PROTEIN (120 h, time 5 day): 6.26 G/DL | URIC ACID (120 h, time 5 day): 1.38 mg/dL | ABSOLUTE BASOPHIL ([…], tissue Blood, time 14 day): 72 cells/µL | ABSOLUTE EOSINOPHIL ([…], tissue Blood, time 14 day): 76 cells/µL | ABSOLUTE LYMPHOCYTE ([…], tissue Blood, time 14 day): 8200 cells/µL | ABSOLUTE MONOCYTE ([…], tissue Blood, time 14 day): 260 cells/µL | ABSOLUTE SEGMENTED NEUTROPHIL ([…], tissue Blood, time 14 day): 1320 cells/µL | BASOPHIL ([…], tissue Blood, time 14 day): 0.66% | EOSINOPHIL ([…], tissue Blood, time 14 day): 0.8% | ERYTHROCYTE COUNT ([…], tissue Blood, time 14 day): 8.58 x10E6/uL | HEMATOCRIT ([…], tissue Blood, time 14 day): 54.6% | HEMOGLOBIN ([…], tissue Blood, time 14 day): 17.66 G/DL | LEUKOCYTE COUNT ([…], tissue Blood, time 14 day): 9.97 x10E3/uL | LYMPHOCYTE ([…], tissue Blood, time 14 day): 81.92% | MEAN CORPUSCULAR HEMOGLOBIN ([…], tissue Blood, time 14 day): 20.62 pg | MEAN CORPUSCULAR HEMOGLOBIN CONCENTRATION ([…], tissue Blood, time 14 day): 32.34 G/DL | MONOCYTE ([…], tissue Blood, time 14 day): 2.54% | NEUTROPHIL ([…], tissue Blood, time 14 day): 13.72% | PLATELET COUNT ([…], tissue Blood, time 14 day): 1213.6 x10E3/uL | ABSOLUTE BASOPHIL ([…], tissue Blood, time 28 day): 170 cells/µL | ABSOLUTE EOSINOPHIL ([…], tissue Blood, time 28 day): 160 cells/µL | ABSOLUTE LYMPHOCYTE ([…], tissue Blood, time 28 day): 8960 cells/µL | ABSOLUTE MONOCYTE ([…], tissue Blood, time 28 day): 240 cells/µL | ABSOLUTE SEGMENTED NEUTROPHIL ([…], tissue Blood, time 28 day): 2230 cells/µL | BASOPHIL ([…], tissue Blood, time 28 day): 1.38% | EOSINOPHIL ([…], tissue Blood, time 28 day): 1.23% | ERYTHROCYTE COUNT ([…], tissue Blood, time 28 day): 9.9 x10E6/uL | HEMATOCRIT ([…], tissue Blood, time 28 day): 61.68% | HEMOGLOBIN ([…], tissue Blood, time 28 day): 19.49 G/DL | LEUKOCYTE COUNT ([…], tissue Blood, time 28 day): 11.78 x10E3/uL | LYMPHOCYTE ([…], tissue Blood, time 28 day): 76.07% | MEAN CORPUSCULAR HEMOGLOBIN ([…], tissue Blood, time 28 day): 19.7 pg | MEAN CORPUSCULAR HEMOGLOBIN CONCENTRATION ([…], tissue Blood, time 28 day): 31.56 G/DL | MONOCYTE ([…], tissue Blood, time 28 day): 2.09% | NEUTROPHIL ([…], tissue Blood, time 28 day): 19.02% | PLATELET COUNT ([…], tissue Blood, time 28 day): 1119.7 x10E3/uL | ALANINE AMINOTRANSFERASE ([…], time 14 day): 29 u/L | ALBUMIN ([…], time 14 day): 3.74 G/DL | ALKALINE PHOSPHATASE ([…], time 14 day): 189.6 u/L | ASPARTATE AMINOTRANSFERASE ([…], time 14 day): 91.8 u/L | BLOOD UREA NITROGEN ([…], time 14 day): 14.6 mg/dL | CHLORIDE ([…], time 14 day): 112 MEQ/L | CHOLESTEROL ([…], time 14 day): 48.8 mg/dL | CREATINE PHOSPHOKINASE ([…], time 14 day): 182.6 u/L | CREATININE ([…], time 14 day): 0.52 mg/dL | GLUCOSE ([…], time 14 day): 124.8 mg/dL | LACTATE DEHYDROGENASE ([…], time 14 day): 103.2 u/L | LIPASE ([…], time 14 day): 22 u/L | POTASSIUM ([…], time 14 day): 6.24 MEQ/L | SODIUM ([…], time 14 day): 149.8 MEQ/L | TOTAL BILIRUBIN ([…], time 14 day): 0.26 mg/dL | TOTAL PROTEIN ([…], time 14 day): 6.68 G/DL | URIC ACID ([…], time 14 day): 1.26 mg/dL | ALANINE AMINOTRANSFERASE ([…], time 28 day): 38.1 u/L | ALBUMIN ([…], time 28 day): 3.64 G/DL | ALKALINE PHOSPHATASE ([…], time 28 day): 126.6 u/L | ASPARTATE AMINOTRANSFERASE ([…], time 28 day): 117.5 u/L | BLOOD UREA NITROGEN ([…], time 28 day): 15.5 mg/dL | CHLORIDE ([…], time 28 day): 110.7 MEQ/L | CHOLESTEROL ([…], time 28 day): 27.7 mg/dL | CREATINE PHOSPHOKINASE ([…], time 28 day): 386.4 u/L | CREATININE ([…], time 28 day): 0.7 mg/dL | GLUCOSE ([…], time 28 day): 88.3 mg/dL | LACTATE DEHYDROGENASE ([…], time 28 day): 116.6 u/L | LIPASE ([…], time 28 day): 2.8 u/L | PHOSPHORUS ([…], time 28 day): 10.92 mg/dL | POTASSIUM ([…], time 28 day): 6.81 MEQ/L | SODIUM ([…], time 28 day): 152.5 MEQ/L | TOTAL BILIRUBIN ([…], time 28 day): 0.33 mg/dL | TOTAL PROTEIN ([…], time 28 day): 6.59 G/DL | URIC ACID ([…], time 28 day): 1.31 mg/dL
